Data on 23 molecules can be found in paper PMC6882462 (Journal of Enzyme Inhibition and Medicinal Chemistry, 2019).

Like-named read-outs stand apart in the source and are kept apart here. Some results are limits rather than exact numbers.

The test system of series [1] is human breast carcinoma cell line MCF-7. Nature of the series: MTT antiproliferative assay against MCF-7. Type of series: cell-based. The note with it: read-out: IC50 (anticancer activity against MCF-7 cell line). On the procedure: All the synthesised naphthalene-chalcone derivatives 3a–3t were evaluated for their anticancer activity by 3-[4,5-dimethylthiazole-2-yl]-2,5-diphenyltetrazolium bromide (MTT) assay method against human breast carcinoma cell line MCF-7. Cisplatin was used as a reference drug. […]. […]
culture, the culture medium was removed, and cells were incubated with tetrazolium dye [3-(4,5-dimethylthiazol-2-yl)-2,5-diphenyltetrazo-lium bromide (MTT) solution for 4 h. Then, the supernatant was removed and the precipitates (formazan crystal) were […]
dissolved in DMSO. […]
A general note: Tetrazolium dyes change colour on reduction, which living cells bring about.

Series [2] relates to SW620 colon cancer cells. Further details: method as in PMID 25193463. The note with it: cited from earlier work.
For series [3], the system named is xenografted tumour. Further details: method as in PMID 24308485. The note with it: cited from earlier work.
Series [4] relates to MCF-7 cells. Nature of the series: Annexin V FITC/PI apoptosis assay. The class given is cell-based, human. Conditions: 2.0 µM, 24 h. Here is the method:
To investigate whether compound 3a could induces apoptosis, the apoptotic effect of compound 3a and DMSO (control) were evaluated by an annexin V FITC/PI (AV/PI) dual staining assay. After treatment MCF-7 cells with compound 3a at the concentration of 2.0 µM for 24 h, the cells were labelled with the two dyes and analysed by flow cytometry. […] In addition, an increase in the early/primary apoptosis was also observed from 1.85% to 20.0% (Figure 4).
MCF-7 cells were grown in 6-well plates and treated with compound 3a (0.5, 2.0 and
10.0 μM) or DMSO for 24 h. After treatment, the cells were collected and stained with
PI (propidium iodide) for 20 min. Apoptosis was analyzed using a flow cytometer. […]

The subject of series [5] is tubulin. Nature of the series: In vitro tubulin polymerisation inhibitory assay. Type of series: biochemical. Here is the method:
1.3 In vitro tubulin polymerization assay
To evaluate the eﬀect of the compound 3a on tubulin assembly in vitro, varying
DMSO were incubated with purified tubulin protein in PEM buffer [100 mM PIPES
(1,4-Piperazinediethanesulfonic acid), 1 mM MgCl2, and 1 mM EGTA(ethylene glycol
tetraacetic acid)] containing 1 mM GTP and 5 % glycerol. […]

Series [6] is described as follows: in vitro. The note with it: human.
In series [7] the test system is MCF-7 cells. As to the kind of experiment: Cell cycle analysis by flow cytometry (PI). Type of series: cell-based, human. The note with it: 2.0 µM, 24 h. From the text: Many studies have reported that tubulin polymerisation inhibitors can arrest cancer cells in G2/M phase and lead to apoptosis[24]^,[25]. The potent tubulin polymerisation inhibitory activity of compound 3a promoted us to further investigate its cellular mechanisms of action in MCF-7 cancer cells by using flow cytometry analysis. In order to elucidate the molecular mechanism of compound 3a, we first studied its effect on cell cycle progression in MCF-7 cells. […] In contrast, after treatment of MCF-7 cells with compound 3a at concentrations of 2.0 µM, the accumulation of cancer cells was detected at G2/M phase by 5.5 folds compared to the control group, from 15.19% in the control group to 84.55% in the compound 3a treated group (Figure 4). […]
MCF-7 cells were seeded in 6-well plates and incubated at 37 °C for overnight and treatment with DMSO or compound 3a (0.5, 2.0 and 10.0 μM) for 24 h. The cells were washed twice with PBS, and incubated for 0.5 h at 37 °C in a PBS solution containing 1 mg/mL RNase A and propidium iodide (PI). C ell cycle was analyzed by flow cytometry (TASC240, USA).
(A flow cytometer gives signals particle by particle.)

Molecule `COc1ccc(/C=C/C(=O)c2c(OC)ccc3ccccc23)c(OC)c1OC` [3c] had a melting point of 107 to 108 °C. In addition, the IC50 in series [1] (Homo sapiens, MCF7, 48 h) was more than 10 µM.
The matching figures for `COc1ccc2ccccc2c1C(=O)/C=C/c1ccccc1Br` [3d]: 150 to 152 °C and 7.63 ± 0.45 µM.
As for `N.N.[Cl][Pt][Cl]` [Cisplatin, reference compound], the IC50 in series [1] (48 h) is 15.2 ± 1.27 µM.
Consider `COc1cc(OC)c(/C=C/C(=O)c2c(O)ccc3ccccc23)c(OC)c1` [HMNC-74], for which the inhibition of clonogenicity entry in series [2] is on record as “strongly inhibited”.
`COc1ccc(/C=C/C(=O)c2c(OC)ccc3ccccc23)cc1Br` [3g] yielded a melting point of 168 to 169 °C. Moreover, the IC50 in series [1] (Homo sapiens, MCF7, 48 h) amounted to 7.11 ± 0.4 µM.
Turning to `COc1ccc(C(=O)/C=C/c2cccc3ccccc23)c(O)c1` [HymnPro, 2-hydroxy-4-methoxy-2′,3′-benzochalcone], the “effect on xenografted tumour growth” value in series [3] was “suppressed xenografted tumour growth”.
`COc1ccc(/C=C/C(=O)c2c(OC)ccc3ccccc23)cc1[N+](=O)[O-]` [3i] had a melting point of 157 to 159 °C. Moreover, in series [1] (Homo sapiens, MCF7, 48 h), the IC50 came to 7.82 ± 0.35 µM.
As to `COc1ccc2ccccc2c1C(=O)/C=C/c1ccc(N(C)C)cc1` [3r], the melting point was 147 to 148 °C. The IC50 in series [1] (Homo sapiens, MCF7, 48 h) stood at 8.91 ± 0.52 µM.
The matching figures for `COc1ccc2ccccc2c1C(=O)/C=C/c1cccc2ccccc12` [3e]: 162 to 163 °C and 7.13 ± 0.33 µM.
For `COc1cc(/C=C/C(=O)c2c(OC)ccc3ccccc23)cc(OC)c1OC` [3p] the same measures were 113 to 114 °C and 7.23 ± 0.38 µM.
With `COc1ccc2ccccc2c1C(=O)/C=C/c1cccc(F)c1` [3o], the melting point was in the range of 142 to 143 °C. In addition, in series [1] (Homo sapiens, MCF7, 48 h), the IC50 amounted to 7.11 ± 0.47 µM.
The molecule `COc1ccc2ccccc2c1C(=O)/C=C/c1ccc(Br)cc1` [3b] showed a melting point of 127 to 129 °C. Besides, in series [1] (Homo sapiens, MCF7, 48 h), the IC50 was found to be 4.1 ± 0.25 µM.
The matching figures for `CCN(CC)c1ccc(/C=C/C(=O)c2c(OC)ccc3ccccc23)cc1` [3s]: 142 to 144 °C and 7.62 ± 0.3 µM.
Take `COc1ccc2ccccc2c1C(=O)/C=C/c1ccccc1F` [3m]: the 50% inhibitory concentration (IC50) in series [1] (Homo sapiens, MCF7, 48 h) is 6.66 ± 0.27 µM.
In the case of `COc1cccc(/C=C/C(=O)c2c(OC)ccc3ccccc23)c1` [3h], the melting point was 109 to 110 °C. In addition, the IC50 in series [1] (Homo sapiens, MCF7, 48 h) amounted to 6.67 ± 0.25 µM.
In turn, `COc1ccc2ccccc2c1C(=O)/C=C/c1ccc2ccccc2c1` [3f] returned a melting point of 107 to 109 °C. Also, the IC50 in series [1] (Homo sapiens, MCF7, 48 h) was determined as 6.87 ± 0.26 µM.
In turn, `COc1ccc2ccccc2c1C(=O)/C=C/c1ccccc1` [3n] returned a melting point of 142 to 144 °C. Further, the concentration for half-maximal inhibition (IC50) in series [1] (Homo sapiens, MCF7, 48 h) came out at 7.62 ± 0.36 µM.
For `COc1ccc2ccccc2c1C(=O)/C=C/c1ccc(Cl)cc1` [3k] the same measures were 142 to 143 °C and 4.74 ± 0.19 µM.
Regarding `COc1cc(OC)c(OC)cc1/C=C/C(=O)c1c(OC)ccc2ccccc12` [3l], the melting point fell in the range of 147 to 149 °C. Further, the IC50 in series [1] (Homo sapiens, MCF7, 48 h) was found to be 7.68 ± 0.32 µM.
For `COc1ccccc1/C=C/C(=O)c1c(OC)ccc2ccccc12` [3q] the same measures were 124 to 126 °C and 7.67 ± 0.39 µM.
Regarding `COc1ccc(/C=C/C(=O)c2c(OC)ccc3ccccc23)cc1O` [3a], the Q1 cell fraction in series [4] came to 1.95%. In series [4], this molecule returned a Q4 cell fraction of 71.7%. The “late/secondary cellular apoptosis (Q2)” value in series [4] (control 0.68%) worked out at 6.34%. In series [4] (control 1.85%), the “early/primary apoptosis (Q3)” value came out at 20.0%. Also, the “inhibition of tubulin polymerisation” value in series [5] (3.0 µM) was 21%; in series [5] (6.0 µM) it was 41%; in series [5] (12.5 µM) it was 60%; in series [5] (25 µM), 82%. Also, the IC50 in series [5] (purified tubulin, absorbance 340 nm, read-out: IC50 tubulin polymerisation inhibition) turned out to be 8.4 µM; in series [6] it was 18.3 ± 1.3 µM; in series [1] (Homo sapiens, MCF7, 48 h), 1.42 ± 0.15 µM. Moreover, the “accumulation of cells at G2/M phase compared to control” value in series [7] worked out at 5.5 folds. Further, the “cells in G1 phase” value in series [7] is on record as 0.04%. Further, the “cells in S phase” value in series [7] turned out to be 15.41%. For the same molecule, in series [7] (control 15.19%), the “cells in G2/M phase” value turned out to be 84.55%.
Consider `COc1ccc(/C=C/C(=O)c2c(OC)ccc3ccccc23)cc1N` [3t], for which the IC50 in series [1] (Homo sapiens, MCF7, 48 h) was 2.75 ± 0.26 µM.
For `COc1ccc2ccccc2c1C(=O)/C=C/c1cccs1` [3j], the melting point was 149 to 150 °C. Moreover, in series [1] (Homo sapiens, MCF7, 48 h), the IC50 was more than 10 µM.

A word on the IC50: it is the concentration needed to halve the response being measured. One may read the melting point as the temperature of the solid-liquid transition.
